In patent US20250114345A1, “COMPOUNDS AND COMPOSITIONS AS CBP/P300 DEGRADERS AND USES THEREOF” (Oncopia Therapeutics, Inc. d/b/a/ SK Life Science Labs, priority 2023, published 2025) one finds Dmax and DC50 data, which are given here for 18 molecules.

Some results are limits rather than exact numbers.

The target of this experiment is T1, p300 (Homo sapiens, UniProt Q09472).
T1 construct: host or cells: A549 P300 HiBit cells
The experiment is described as follows: P300 degradation, HiBit technology in A549 P300 HiBit cells (2 h). Format: cell-based. Conditions: 2 hrs post treatment; for Dmax: A549, A549 P300 HiBit cells; for DC50: A549 P300 HiBit cells. In a few lines:
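Luminescence after lytic HiBiT detection (10 min, room temperature) gave degradation potency and Dmax. Before that, knock-in A549 cells grown overnight in F-12K/10% HI-FBS were exposed to serially diluted compound at 37 °C, 5% CO2 for the assay time stated.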

T1 sequence (Q09472 whole entry): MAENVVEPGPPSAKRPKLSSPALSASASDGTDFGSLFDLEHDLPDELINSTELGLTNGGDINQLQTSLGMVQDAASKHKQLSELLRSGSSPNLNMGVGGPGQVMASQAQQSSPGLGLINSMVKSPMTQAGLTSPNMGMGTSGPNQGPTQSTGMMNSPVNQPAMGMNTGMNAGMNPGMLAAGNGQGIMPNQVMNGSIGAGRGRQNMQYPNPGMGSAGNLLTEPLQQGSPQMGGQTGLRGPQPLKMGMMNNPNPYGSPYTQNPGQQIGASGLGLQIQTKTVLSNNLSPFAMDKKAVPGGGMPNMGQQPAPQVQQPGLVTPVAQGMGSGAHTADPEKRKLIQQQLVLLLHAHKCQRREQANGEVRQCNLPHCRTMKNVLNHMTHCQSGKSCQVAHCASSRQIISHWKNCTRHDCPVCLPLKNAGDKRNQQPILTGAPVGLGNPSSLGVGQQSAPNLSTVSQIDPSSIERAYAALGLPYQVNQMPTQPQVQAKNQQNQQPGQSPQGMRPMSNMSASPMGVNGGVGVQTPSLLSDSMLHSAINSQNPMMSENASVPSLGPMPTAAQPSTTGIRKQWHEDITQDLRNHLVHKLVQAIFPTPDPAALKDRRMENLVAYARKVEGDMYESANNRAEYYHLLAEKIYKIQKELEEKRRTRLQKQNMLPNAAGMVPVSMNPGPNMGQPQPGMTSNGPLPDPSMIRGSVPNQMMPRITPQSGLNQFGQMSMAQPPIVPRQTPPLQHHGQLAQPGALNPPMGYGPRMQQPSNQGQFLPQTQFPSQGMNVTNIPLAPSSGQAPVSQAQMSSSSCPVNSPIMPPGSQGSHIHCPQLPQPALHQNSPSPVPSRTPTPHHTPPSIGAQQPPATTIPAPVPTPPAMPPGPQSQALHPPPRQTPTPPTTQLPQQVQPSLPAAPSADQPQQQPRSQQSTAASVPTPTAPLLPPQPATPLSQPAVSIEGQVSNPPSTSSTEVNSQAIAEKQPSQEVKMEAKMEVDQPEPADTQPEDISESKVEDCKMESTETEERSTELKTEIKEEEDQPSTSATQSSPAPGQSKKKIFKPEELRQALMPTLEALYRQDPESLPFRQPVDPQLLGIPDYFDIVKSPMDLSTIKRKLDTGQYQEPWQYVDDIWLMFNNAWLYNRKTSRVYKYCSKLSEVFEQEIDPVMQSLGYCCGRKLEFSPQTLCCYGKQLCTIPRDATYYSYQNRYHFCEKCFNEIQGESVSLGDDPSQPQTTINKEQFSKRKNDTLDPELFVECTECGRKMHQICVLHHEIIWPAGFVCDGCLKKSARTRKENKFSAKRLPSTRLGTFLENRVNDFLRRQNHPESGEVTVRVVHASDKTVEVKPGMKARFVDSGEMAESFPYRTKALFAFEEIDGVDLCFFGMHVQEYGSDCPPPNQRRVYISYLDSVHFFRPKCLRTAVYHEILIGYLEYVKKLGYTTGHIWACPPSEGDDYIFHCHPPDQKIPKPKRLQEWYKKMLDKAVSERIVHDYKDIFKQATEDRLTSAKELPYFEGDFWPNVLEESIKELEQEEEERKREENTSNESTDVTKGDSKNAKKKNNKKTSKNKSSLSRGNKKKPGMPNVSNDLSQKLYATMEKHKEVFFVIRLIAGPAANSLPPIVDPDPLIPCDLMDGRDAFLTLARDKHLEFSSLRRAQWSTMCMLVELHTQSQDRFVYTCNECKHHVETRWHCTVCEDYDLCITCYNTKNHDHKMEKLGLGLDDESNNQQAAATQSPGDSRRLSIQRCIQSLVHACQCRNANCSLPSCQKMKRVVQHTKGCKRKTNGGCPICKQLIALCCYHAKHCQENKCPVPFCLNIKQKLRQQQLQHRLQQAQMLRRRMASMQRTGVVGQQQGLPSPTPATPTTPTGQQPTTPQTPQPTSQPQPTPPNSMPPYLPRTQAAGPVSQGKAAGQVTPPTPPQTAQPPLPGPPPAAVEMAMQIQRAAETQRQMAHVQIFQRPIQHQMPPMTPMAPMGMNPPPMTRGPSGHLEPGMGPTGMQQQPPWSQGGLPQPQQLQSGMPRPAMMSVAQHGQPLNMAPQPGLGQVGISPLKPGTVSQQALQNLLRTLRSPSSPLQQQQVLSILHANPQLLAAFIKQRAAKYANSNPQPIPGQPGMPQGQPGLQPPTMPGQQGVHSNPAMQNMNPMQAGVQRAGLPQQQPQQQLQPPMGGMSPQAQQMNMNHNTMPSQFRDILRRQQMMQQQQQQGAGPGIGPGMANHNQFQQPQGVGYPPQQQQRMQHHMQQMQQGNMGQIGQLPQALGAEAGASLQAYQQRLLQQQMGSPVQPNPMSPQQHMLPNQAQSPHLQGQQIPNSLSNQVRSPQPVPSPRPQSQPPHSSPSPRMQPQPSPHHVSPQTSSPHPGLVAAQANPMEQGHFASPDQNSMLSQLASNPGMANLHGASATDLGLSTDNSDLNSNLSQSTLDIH

Regarding `CC(C)c1cc(-c2ncc(N(C)c3cc(C(C)C)c4c(c3)n(C)c(=O)n4C)cn2)cnc1C(=O)NCC#Cc1ccc2occ(C3CCC(=O)NC3=O)c2c1` (stereo not drawn) [Example A71, N-(3-(3-(2,6-dioxopiperidin-3-yl)benzofuran-5-yl)prop-2-yn-1-yl)-3-isopropyl-5-(5-((7-isopropyl-1,3-dimethyl-2-oxo-2,3-dihydro-1H-benzo[d]imidazol-5-yl)(methyl)amino)pyrimidin-2-yl)picolinamide], the maximal degradation (Dmax) is > 80% and the DC50 was 1 to 9.9 nM.
On to `CCc1cc(-c2cccc3cc(-c4ccc(C(=O)NCC#Cc5ccc6c(c5)ncn6C5CCC(=O)NC5=O)nc4)ncc23)c2cc(C)c(=O)n(C)c2c1` (stereo not drawn) [Example B12, N-(3-(1-(2,6-Dioxopiperidin-3-yl)-1H-benzo[d]imidazol-5-yl)prop-2-yn-1-yl)-5-(8-(7-ethyl-1,3-dimethyl-2-oxo-1,2-dihydroquinolin-5-yl)isoquinolin-3-yl)picolinamide], for which the greatest degradation seen (Dmax) is < 20% and the 50% degradation concentration (DC50) was > 1000 nM.
Take `CCc1cc2c(N3CCCc4nc(-c5ccc(C(=O)NCC#Cc6ccc7occ(C8CCC(=O)NC8=O)c7c6)nc5)ncc43)cc(C3CCOCC3)cc2n(C)c1=O` (stereo not drawn) [Example B122, N-(3-(3-(2,6-dioxopiperidin-3-yl)benzofuran-5-yl)prop-2-yn-1-yl)-5-(5-(3-ethyl-1-methyl-2-oxo-7-(tetrahydro-2H-pyran-4-yl)-1,2-dihydroquinolin-5-yl)-5,6,7,8-tetrahydropyrido [3,2-d]pyrimidin-2-yl)picolinamide]: the Dmax is < 20% and the half-maximal degradation concentration (DC50) is > 1000 nM.
Turning to `Cc1cc2c(N3CCOc4cc(-c5ccc(C(=O)NCC#Cc6ccc7occ(C8CCC(=O)NC8=O)c7c6)nc5)c(F)cc43)cccc2n(C)c1=O` (stereo not drawn) [Example B145, 5-(4-(1,3-dimethyl-2-oxo-1,2-dihydroquinolin-5-yl)-6-fluoro-3,4-dihydro-2H-benzo[b][1,4]oxazin-7-yl)-N-(3-(3-(2,6-dioxopiperidin-3-yl)benzofuran-5-yl)prop-2-yn-1-yl) picolinamide], the Dmax is > 80% and the 50% degradation concentration (DC50) fell in the range of 1 to 9.9 nM.
The corresponding values for `Cc1cc(N2CCCc3nc(-c4ccc(C(=O)NCC#Cc5cc6c(C7CCC(=O)NC7=O)nccc6o5)nc4)ncc32)c2cc(C)c(=O)n(C)c2c1` (stereo not drawn) [Example B120, N-(3-(4-(2,6-dioxopiperidin-3-yl)furo[3,2-c]pyridin-2-yl)prop-2-yn-1-yl)-5-(5-(1,3,7-trimethyl-2-oxo-1,2-dihydroquinolin-5-yl)-5,6,7,8-tetrahydropyrido[3,2-d]pyrimidin-2-yl) picolinamide] are > 80% and 1 to 9.9 nM.
Turning to `Cc1cc(-c2ncc(Nc3cc(C4CCOCC4)c4c(c3)n(C)c(=O)n4C)cn2)cnc1C(=O)NCC#Cc1cc2c(C3CCC(=O)NC3=O)cccc2o1` (stereo not drawn) [Example A236, 5-(5-((1,3-dimethyl-2-oxo-7-(tetrahydro-2H-pyran-4-yl)-2,3-dihydro-1H-benzo[d]imidazol-5-yl)amino)pyrimidin-2-yl)-N-(3-(4-(2,6-dioxopiperidin-3-yl)benzofuran-2-yl)prop-2-yn-1-yl)-3-methylpicolinamide], the greatest degradation seen (Dmax) lay within 40 to 59% and the 50% degradation concentration (DC50) was in the range of 10 to 99 nM.
On to `Cc1cc(-c2ncc(N(C)c3cc(C4CCOCC4)c4c(c3)n(C)c(=O)n4C)cn2)cnc1C(=O)NCC#Cc1cc2c(C3CCC(=O)NC3=O)nccc2o1` (stereo not drawn) [Example A168, 5-(5-((1,3-dimethyl-2-oxo-7-(tetrahydro-2H-pyran-4-yl)-2,3-dihydro-1H-benzo[d]imidazol-5-yl)(methyl)amino)pyrimidin-2-yl)-N-(3-(4-(2,6-dioxopiperidin-3-yl)furo[3,2-c]pyridin-2-yl)prop-2-yn-1-yl)-3-methylpicolinamide], for which the Dmax was > 80% and the DC50 was 1 to 9.9 nM.
For the molecule `CCc1cc(S(=O)(=O)c2ccc(-c3cnc(C(=O)NCC#Cc4cccc(NC5CCC(=O)NC5=O)c4)c(C)c3)nc2)c2cc(C)c(=O)n(C)c2c1` (stereo not drawn) [Example B10, N-(3-(3-((2,6-Dioxopiperidin-3-yl)amino)phenyl)prop-2-yn-1-yl)-5-((7-ethyl-1,3-dimethyl-2-oxo-1,2-dihydroquinolin-5-yl)sulfonyl)-5′-methyl-[2,3′-bipyridine]-6′-carboxamide], the maximal degradation (Dmax) was < 20% and the 50% degradation concentration (DC50) was > 1000 nM.
With `CCN(c1cnc(-c2ccc(C(=O)NCC#Cc3cc4c(C5CCC(=O)NC5=O)cccc4o3)nc2)nc1)c1cc(C2CCOCC2)c2c(c1)n(C)c(=O)n2C` (stereo not drawn) [Example A224, 5-(5-((1,3-dimethyl-2-oxo-7-(tetrahydro-2H-pyran-4-yl)-2,3-dihydro-1H-benzo[d]imidazol-5-yl)(ethyl)amino)pyrimidin-2-yl)-N-(3-(4-(2,6-dioxopiperidin-3-yl)benzofuran-2-yl)prop-2-yn-1-yl)picolinamide], the Dmax was > 80% and the DC50 lay in the range of 1 to 9.9 nM.
The corresponding values for `CN1CCN(c2ccc3c(c2)n(C)c(=O)n3C)c2cnc(-c3ccc(C(=O)NCC#Cc4cc5c(C6CCC(=O)NC6=O)nccc5o4)nc3)cc21` (stereo not drawn) [Example A218, 5-(4-(1,3-dimethyl-2-oxo-2,3-dihydro-1H-benzo[d]imidazol-5-yl)-1-methyl-1,2,3,4-tetrahydropyrido[3,4-b]pyrazin-7-yl)-N-(3-(4-(2,6-dioxo-piperidin-3-yl)furo[3,2-c]pyridin-2-yl)prop-2-yn-1-yl)picolinamide] are > 80% and < 1 nM.
In turn, `Cc1cc2c(N3CCCc4nc(-c5ccc(C(=O)NCC=C=Cc6ccc7occ(C8CCC(=O)NC8=O)c7c6)nc5)ncc43)cc(C3CCOCC3)cc2n(C)c1=O` (stereo not drawn) [Example B116, 5-(5-(1,3-dimethyl-2-oxo-7-(tetrahydro-2H-pyran-4-yl)-1,2-dihydroquinolin-5-yl)-5,6,7,8-tetrahydropyrido[3,2-d]pyrimidin-2-yl)-N-(4-(3-(2,6-dioxopiperidin-3-yl)benzofuran-5-yl)buta-2,3-dien-1-yl)picolinamide] came in with a Dmax of 40 to 59% and a half-maximal degradation concentration (DC50) of 10 to 99 nM.
As for `Cc1cc(-c2ncc(N(C)c3cc(C4CCOCC4)c4c(c3)n(C)c(=O)n4C)cn2)cnc1C(=O)NCC#Cc1ccc2occ(C34CC(C3)C(=O)NC4=O)c2c1` [Example A201, 5-(5-((1,3-dimethyl-2-oxo-7-(tetrahydro-2H-pyran-4-yl)-2,3-dihydro-1H-benzo[d]imidazol-5-yl)(methyl)amino)pyrimidin-2-yl)-N-(3-(3-(2,4-dioxo-3-azabicyclo[3.1.1]heptan-1-yl)benzofuran-5-yl)prop-2-yn-1-yl)-3-methylpicolinamide], the Dmax was > 80% and the DC50 fell in the range of 1 to 9.9 nM.
For `CCN(c1cnc(-c2cnc(C(=O)NCC#Cc3ccc4occ(C5CCC(=O)NC5=O)c4c3)c(C)c2)c(F)c1)c1cc(C(C)C)c2c(c1)n(C)c(=O)n2C` (stereo not drawn) [Example A137, N-(3-(3-(2,6-dioxo-piperidin-3-yl)benzofuran-5-yl)prop-2-yn-1-yl)-5-(ethyl(7-isopropyl-1,3-dimethyl-2-oxo-2,3-dihydro-1H-benzo[d]imidazol-5-yl)amino)-3-fluoro-5′-methyl-[2,3′-bipyridine]-6′-carboxamide], the maximal degradation (Dmax) is > 80% and the half-maximal degradation concentration (DC50) lay within 1 to 9.9 nM.
In turn, `CC(C)c1cc(-c2cccc3cc(-c4ccc(C(=O)NCC#Cc5ccc6c(C(F)F)nn(C7CCC(=O)NC7=O)c6c5)nc4)ncc23)cc2c1n(C)c(=O)n2C` (stereo not drawn) [Example A31, N-(3-(3-(Difluoromethyl)-1-(2,6-dioxopiperidin-3-yl)-1H-indazol-6-yl)prop-2-yn-1-yl)-5-(8-(7-isopropyl-1,3-dimethyl-2-oxo-2,3-dihydro-1H-benzo[d]imidazol-5-yl)isoquinolin-3-yl)picolinamide] showed a Dmax of 20 to 39% and a half-maximal degradation concentration (DC50) of 1 to 9.9 nM.
Taken in the same sequence, the figures for `Cc1cc(N2CCCc3nc(-c4ccc(C(=O)NCC#Cc5ccc6occ(C7CCC(=O)NC7=O)c6c5)nc4)ncc32)cc2c1n(C)c(=O)n2C` (stereo not drawn) [Example A146, N-(3-(3-(2,6-dioxo-piperidin-3-yl)benzofuran-5-yl)prop-2-yn-1-yl)-5-(5-(1,3,7-trimethyl-2-oxo-2,3-dihydro-1H-benzo[d]imidazol-5-yl)-5,6,7,8-tetrahydropyrido [3,2-d]pyrimidin-2-yl)picolinamide] were > 80% and 1 to 9.9 nM.
Taken in the same sequence, the figures for `CN1C2CCC1CN(c1nc(-c3cccc4cc(-c5ccc(C(=O)NCC#Cc6ccc7occ(C8CCC(=O)NC8=O)c7c6)nc5)ncc34)cc3c1n(C)c(=O)n3C)C2` (stereo not drawn) [Example A67, 5-(8-(1,3-dimethyl-4-(8-methyl-3,8-diazabicyclo[3.2.1]octan-3-yl)-2-oxo-2,3-dihydro-1H-imidazo [4,5-c]pyridin-6-yl)isoquinolin-3-yl)-N-(3-(3-(2,6-dioxopiperidin-3-yl)benzofuran-5-yl)prop-2-yn-1-yl)picolinamide] were 60 to 79% and 1 to 9.9 nM.
As for `CC(C)c1cc(N2CCCc3cc(-c4ccc(C(=O)NCc5ccc(-c6ccn(C7CCC(=O)NC7=O)n6)cc5)nc4)c(C(F)F)cc32)cc2c1n(C)c(=O)n2C` (stereo not drawn) [Example A37, 5-(7-(Difluoromethyl)-1-(7-isopropyl-1,3-dimethyl-2-oxo-2,3-dihydro-1H-benzo[d]imidazol-5-yl)-1,2,3,4-tetrahydroquinolin-6-yl)-N-(4-(1-(2,6-dioxopiperidin-3-yl)-1H-pyrazol-3-yl)benzyl)picolinamide], the Dmax was < 20% and the DC50 is > 1000 nM.
With `CC(C)c1cc(N(C)c2cnc(-c3ccc(C(=O)NCC#Cc4ccc5occ(C6CCC(=O)NC6=O)c5c4)nc3)cn2)cc2c1n(C)c(=O)n2C` (stereo not drawn) [Example A59, N-(3-(3-(2,6-dioxopiperidin-3-yl)benzofuran-5-yl)prop-2-yn-1-yl)-5-(5-((7-isopropyl-1,3-dimethyl-2-oxo-2,3-dihydro-1H-benzo [d]imidazol-5-yl)(methyl)amino)pyrazin-2-yl)picolinamide], the greatest degradation seen (Dmax) was > 80% and the DC50 fell in the range of 1 to 9.9 nM.
